Patent publication US9006174B2 (priority 2009, dated 2015)
Ends that are not written are not given here.

What follows are substances tested on cRBCs (assay: Haemolytic activity, chicken erythrocytes). Settings: 1 h at 37° C.
Type: cell-based
In the case of “RFGRFLRKIRRFRPK [CMAP(1-15), RFGRFLRKIRRFRPK]”, the “Toxicity Haemolysis (cRBCs)” value is reported as “− (<25% dead cells)”.
With “RFGRFLRKIRRFRPKVTITIQGSARF-NH2 [CMAP26-NH2, reference compound]” the “Toxicity Haemolysis (cRBCs)” value was “+/− (>25% dead cells)”.
For RFGRFLRKIRRFRPKVTITIQ [CMAP1-21], the “Toxicity Haemolysis (cRBCs)” value was “− (<25% dead cells)”.

The substances below were run on hRBCs (assay: not given). Settings: human erythrocytes, 1 h at 37° C.
In the case of “RFGRWLRKIRRFRPK [CMAP(1-15) (F5→W), RFGRWLRKIRRFRPK]”, the “Toxicity Haemolysis (hRBCs)” value is reported as “−− (<5% dead cells)”.
“RFGRFLRKIRRFR [CMAP(1-13), RFGRFLRKIRRFR]” was tested, and the “Toxicity Haemolysis (hRBCs)” value was “−− (<5% dead cells)”.
For “RFGRFLRKIRRFRPKVTITIQGSARFG [CMAP27, reference compound]”, the “Toxicity Haemolysis (hRBCs)” value was “− (<25% dead cells)”.
In the case of “RFGRFLRKIRRFRPK [CMAP(1-15), RFGRFLRKIRRFRPK]”, the “Toxicity Haemolysis (hRBCs)” value is reported as “−− (<5% dead cells)”.
RFGRFLRKIRRFRPKVTITIQGSARF [CMAP26] was tested, and the “Toxicity Haemolysis (hRBCs)” value was “++ (>75% dead cells)”.
For “FGRFLRKIRRFRPK [CMAP(2-15), FGRFLRKIRRFRPK]”, the “Toxicity Haemolysis (hRBCs)” value was “−− (<5% dead cells)”.
For “GRFLRKIRRFRPK [CMAP(3-15), GRFLRKIRRFRPK]”, the “Toxicity Haemolysis (hRBCs)” value was “−− (<5% dead cells)”.
With RFLRKIRRFRPK [CMAP(4-15), RFLRKIRRFRPK] the “Toxicity Haemolysis (hRBCs)” value was “+/− (>25% dead cells)”.
With “RLGRLLRKIRRLRPK [CMAP(1-15) (3xF→L), RLGRLLRKIRRLRPK]” the “Toxicity Haemolysis (hRBCs)” value was “− (<25% dead cells)”.
For “RWGRWLRKIRRWRPK [CMAP(1-15) (3xF→W), RWGRWLRKIRRWRPK]”, the “Toxicity Haemolysis (hRBCs)” value was “− (<25% dead cells)”.
In the case of RFGRFLRKIRRF [CMAP(1-12), RFGRFLRKIRRF], the “Toxicity Haemolysis (hRBCs)” value is reported as “−− (<5% dead cells)”.
“RLGRFLRKIRRFRPK [CMAP(1-15) (F2→L), RLGRFLRKIRRFRPK]” was tested, and the “Toxicity Haemolysis (hRBCs)” value was “− (<25% dead cells)”.
With FLRKIRRFRPK [CMAP(5-15), FLRKIRRFRPK] the “Toxicity Haemolysis (hRBCs)” value was “− (<25% dead cells)”.
In the case of “RFGRLLRKIRRFRPK [CMAP(1-15) (F5→L), RFGRLLRKIRRFRPK]”, the “Toxicity Haemolysis (hRBCs)” value is reported as “− (<25% dead cells)”.
For RFGRFLRKIR [CMAP(l-l0), RFGRFLRKIR], the “Toxicity Haemolysis (hRBCs)” value was “−− (<5% dead cells)”.
RFGRFLRKIRR [CMAP(l-ll), RFGRFLRKIRR] was tested, and the “Toxicity Haemolysis (hRBCs)” value was “+/− (>25% dead cells)”.
In the case of “RWGRFLRKIRRFRPK [CMAP(1-15) (F2→W), RWGRFLRKIRRFRPK]”, the “Toxicity Haemolysis (hRBCs)” value is reported as “−− (<5% dead cells)”.
